Laboratory results from patent US20230364111A1 (priority 2020, published 2023).
Entries after “also recorded” stand apart in the source; their conditions may differ. Read-outs that look alike come from different tables or passages of the source.

What was measured:
VeroE6/TMPRSS2 cells = details: read-out: CC50 (VeroE6); VeroE6
TGFβ signaling = details: previously reported [16]; fibroblastic cells and tumor cells; cited from earlier work
[1] = system: HCV NN (genotype-1b) subgenomic replicon; assay type: cell-based, Hepatitis C virus (HCV); details: 10 μM Oxy210; 48 h; LucNeo #2 cells
[2] = system: SARS-CoV-2 TY8-612 (South Africa strain); experiment: SARS-CoV-2 TY8-612 strain infection in VeroE6/TMPRSS2 cells; assay type: cell-based; details: viral RNA 24 h post-inoculation
Protocol: (§1) FIGS. 12A-12C depict dose-response curves for Oxy232. (FIG. 12A) Secreted viral RNA in the VeroE6 culture supernatant 24 h post-inoculation was quantified by real-time RT-PCR. Cell viability of Oxy232 treated cells evaluated with an MTT assay. (FIG. 12B) Secreted viral RNA of 3 SARS-CoV-2 strains in the VeroE6 culture supernatant 24 h post-inoculation was quantified by real-time RT-PCR. (FIG. 12C) Calu-3 (ATCC) cells were pretreated with Oxy232 for 2 hours prior to continuous infection with SARS-CoV-2 (isolate USA WA1/2020) at MOI=0.5. 48 h post-infection, cells were fixed, immune-strained, and imaged by automated microscopy for infection (dsRNA+ cells/total cell number) and cell number.
(§2) According to a previously published report (Ohashi et al., Identification of Anti-Severe Acute Respiratory Syndrome-Related Coronavirus 2 (SARS-CoV-2) Oxysterol Derivatives In Vitro. Int J Mol Sci. 2021; 22(6):3163. PMCID: PMC8003796) inventors have tested a collection of naturally occurring and semisynthetic oxysterol derivatives in a SARS-CoV-2 cell culture infection assay in VeroE6/TMPRSS2 cells. […] See, Ohashi et al., Int J Mol Sci. 2021; 22(6):3163 and Dittmar et al. Drug repurposing screens reveal cell-type-specific entry pathways and FDA-approved drugs active against SARS-Cov-2. Cell Rep. […] PMCID: PMC7985926. […]

SARS-CoV-2 [3] = experiment: SARS-CoV-2-induced cytopathic effect (CPE) in VeroE6/TMPRSS2 cells; assay type: cell-based
in vivo = details: balb/c, mouse, po, 200 mg/kg
SARS-CoV-2 Wk-521 strain = experiment: SARS-CoV-2 infection assay, viral RNA in culture supernatant (VeroE6/TMPRSS2 cells); assay type: cell-based
[4] = single oral dose 200 mg/kg
in vitro [5] = details: African green monkey
Hedgehog (Hh) signaling = details: previously reported [16]; fibroblastic cells and tumor cells; cited from earlier work
[6] = system: idiopathic pulmonary fibrosis (IPF); experiment: Mouse model of idiopathic pulmonary fibrosis (IPF); assay type: in vivo; details: Parhami et al., unpublished observations
SARS-CoV-2 [7] = assay type: cell-based
HDV = assay type: cell-based, Hepatitis D virus (HDV); details: 10 μM Oxy210 for six days; 200 nM MyrB; HepG2-hNTCP-C4 cells
[8] = system: SARS-CoV-2 TY7-501 (Brazil strain); experiment: SARS-CoV-2 TY7-501 strain infection in VeroE6/TMPRSS2 cells; assay type: cell-based; details: viral RNA 24 h post-inoculation
Protocol: as §1, §2

[9] = In vivo safety and tolerability in mice; details: mouse
[10] = system: double-membrane vesicles (DMVs) in SARS-CoV-2-infected cells; experiment: Electron microscopy of double-membrane vesicle (DMV) formation; assay type: cell-based; details: 10 μM Oxy210, Oxy232 (10 μM)
[11] = system: SARS-CoV-2 (isolate USA WA1/2020); experiment: SARS-CoV-2 infection of Calu-3 cells (dsRNA+ cells, automated microscopy); assay type: cell-based; details: Severe acute respiratory syndrome coronavirus 2, SARS-CoV-2 USA WA1/2020, MOI=0.5, 48 h post-infection, Calu-3
Protocol: as §1
According to a previously published report (Ohashi et al., Identification of Anti-Severe Acute Respiratory Syndrome-Related Coronavirus 2 (SARS-CoV-2) Oxysterol Derivatives In Vitro. Int J Mol Sci. 2021; 22(6):3163. PMCID: PMC8003796) inventors have tested a collection of naturally occurring and semisynthetic oxysterol derivatives in a SARS-CoV-2 cell culture infection assay in VeroE6/TMPRSS2 cells. […] See, Ohashi et al., Int J Mol Sci. 2021; 22(6):3163 and Dittmar et al. Drug repurposing screens reveal cell-type-specific entry pathways and FDA-approved drugs active against SARS-Cov-2. Cell Rep. […] PMCID: PMC7985926. […] Without wishing to be bound by a theory, biological activities of oxysterols, including measures of cell viability, can heavily depend on in vitro assay conditions, such as the fetal bovine serum concentration or the duration of pretreatment with the compounds, among other factors, that may not translate to the in vivo safety of the compounds.

[12] = assay type: in vivo, mice; details: chow diet containing 4 mg Oxy210/g of food; 96 h
SARS-CoV-2 [13] = experiment: Time of addition assay, SARS-CoV-2 viral RNA; assay type: cell-based; details: 15 μM RDV, 15 μM CLQ, 10 μM Oxy210, 10 μM Oxy133
Calu-3 cells = details: at higher concentrations; automated microscopy
in vitro [14] = details: human

Question: With C[C@]12CC[C@H]3[C@@H](CC=C4C[C@@H](O)CC[C@@]43C)[C@@H]1CC[C@@H]2[C@](C)(O)CCc1cccnc1 [Oxy210, (3S,8S,9S,10R,13S,14S,17S)-17-((R)-2-hydroxy-4-(pyridin-3-yl)butan-2-yl)-10,13-dimethyl-2,3,4,7,8,9,10,11,12,13,14,15,16,17-tetradecahydro-1H-cyclopenta[a]phenanthren-3-ol] as the molecule, how does the CC50 (VeroE6/TMPRSS2 cells) read?
Answer: The CC50 was over 15 µM.

Question: And the TGFβ signaling (TGFβ signaling)?
Answer: The TGFβ signaling was “inhibited”.

Question: What about the “HCV replication (luciferase activity)” value [1] of the same molecule?
Answer: The value was “reduced the DMV-dependent RNA replication of HCV; also recorded: Antiviral effects of Oxy210 were also observed during the replication of HCV”.

Question: And the “activity against the TY8-612 strain” value [2]?
Answer: Its value is “undiminished activity”.

Question: What about the “virus-induced CPE” value (SARS-CoV-2 [3]; 48 h post-inoculation, 10 μM RDV, 30 μM cholesterol, 30 μM 7-KC, 10 μM Oxy133, 10 μM Oxy210, MOI 0.001) of the same molecule?
Answer: Its value is “alleviates the virus-induced CPE; also recorded: blocked”.

Question: What about the SARS-CoV-2-induced cytopathic effect (SARS-CoV-2 [3]; oxy8 7.5 uM, oxy16 20 uM, oxy186 20 uM, oxy210 10 uM, 48 h, VeroE6/TMPRSS2) of the same molecule?
Answer: Its SARS-CoV-2-induced cytopathic effect is “protected cells from cytopathic effect”.

Question: And the AUC (in vivo)?
Answer: The AUC was 29300 ng·h/mL.

Question: What about the Cmax (in vivo) of the same molecule?
Answer: Its Cmax is 19 µM.

Question: And the “viral RNA in the culture supernatant” value (SARS-CoV-2 Wk-521 strain; 24 h post-inoculation, natural oxysterols up to 30 μM, semi-synthetic up to 15 μM)?
Answer: The value was “reduced viral RNA level in a dose-dependent manner”.

Question: What about the IC50 (SARS-CoV-2 Wk-521 strain; Severe acute respiratory syndrome coronavirus 2, Vero C1008, SARS-CoV-2, VeroE6, read-out: IC50 (VeroE6)) of the same molecule?
Answer: The IC50 was 5.5 µM.

Question: And the IC90 (SARS-CoV-2 Wk-521 strain; Severe acute respiratory syndrome coronavirus 2, Vero C1008, SARS-CoV-2, VeroE6, read-out: IC90 (VeroE6))?
Answer: The IC90 was 8.6 µM.

Question: What about the IC90 (SARS-CoV-2 Wk-521 strain; Severe acute respiratory syndrome coronavirus 2, VeroE6/TMPRSS2, 24 h, SARS-CoV-2 viral RNA in culture supernatant, 24 h post-inoculation, VeroE6/TMPRSS2 cells, read-out: IC90) of the same molecule?
Answer: The IC90 was 8.6 µM.

Question: What about the IC50 (SARS-CoV-2 Wk-521 strain; Severe acute respiratory syndrome coronavirus 2, SARS-CoV-2 viral RNA in culture supernatant, 24 h post-inoculation, VeroE6/TMPRSS2 cells, read-out: IC50) of the same molecule?
Answer: The IC50 was 5.5 µM.

Question: And the “reduction of viral RNA production at the maximum” value (SARS-CoV-2 Wk-521 strain; at 15 μM)?
Answer: Its value is 99.4%.

Question: What about the “anti-SARS-CoV-2 activity” value (SARS-CoV-2 Wk-521 strain; cell-based assay, VeroE6/TMPRSS2) of the same molecule?
Answer: Its value is “superior anti-SARS-CoV-2 activity; also recorded: robust anti-SARS-CoV-2 activity”.

Question: And the “viral RNA levels in the culture supernatant” value (SARS-CoV-2 Wk-521 strain; oxysterol derivatives at 10 or 30 uM, 24 h post-inoculation, VeroE6/TMPRSS2)?
Answer: Its value is “strongly reduced viral RNA levels”.

Question: What about the “SARS-CoV-2 propagation in cultured cells” value (SARS-CoV-2 Wk-521 strain; statement in words) of the same molecule?
Answer: Its value is “potently inhibits the SARS-CoV-2 propagation”.

Question: What about the SARS-CoV-2 replication (SARS-CoV-2 Wk-521 strain; statement in words) of the same molecule?
Answer: Its SARS-CoV-2 replication is “drastically reduced SARS-CoV-2 replication; also recorded: inhibits the SARS-CoV-2 genome replication; also recorded: potent replication inhibitor”.

Question: What about the “antiviral effect against SARS-CoV-2 (dose response, viral RNA)” value (SARS-CoV-2 Wk-521 strain; various concentrations, VeroE6/TMPRSS2) of the same molecule?
Answer: Its value is “highly potent antiviral effect”.

Question: What about the Tmax ([4]; plasma) of the same molecule?
Answer: Its Tmax is 1 h.

Question: And the Cmax ([4]; read-out: peak plasma concentration (Cmax), 200 mg/kg)?
Answer: Its Cmax is 19.4 µM.

Question: What about the “peak plasma concentration (Cmax)” value [4] of the same molecule?
Answer: The value was 8,155 ng/mL.

Question: And the tolerability [4]?
Answer: The tolerability was “well tolerated”.

Question: And the CC50 (in vitro [5])?
Answer: Its CC50 is over 15 µM.

Question: And the “Hedgehog (Hh) signaling” value (Hedgehog (Hh) signaling)?
Answer: The value was “inhibited”.

Question: And the “effects in a mouse model of idiopathic pulmonary fibrosis (IPF)” value [6]?
Answer: Its value is “protective effects”.

Question: What about the “SARS-CoV-2 propagation / spread of infection (viral N protein, immunofluorescence)” value (SARS-CoV-2 [7]) of the same molecule?
Answer: Its value is “blocked”.

Question: And the “HDV replication / infection (HDV RNA, real-time RT-PCR)” value (HDV)?
Answer: Its value is “antiviral activity was not observed in HDV infection”.

Question: And the “activity against the TY7-501 strain” value [8]?
Answer: The value was “undiminished activity”.

Question: And the “in vivo safety and tolerability in mice” value [9]?
Answer: The value was “excellent in vivo safety and tolerability”.

Question: What about the “DMV formation in SARS-CoV-2-infected cells” value [10] of the same molecule?
Answer: Its value is “disrupting the formation of double-membrane vesicles; also recorded: reduced viral replication and the formation of double-membrane vesicles; also recorded: remarkably reduced the DMV formation; also recorded: reduced the formation of DMVs; also recorded: substantially reduced; also recorded: inhibit DMV formation”.

Question: And the IC50 ([11]; read-out: IC50 (Calu-3))?
Answer: The IC50 was 1.5 µM.

Question: What about the IC90 ([11]; read-out: IC90 (Calu-3)) of the same molecule?
Answer: Its IC90 is 4.24 µM.

Question: And the “adverse effects / body weight” value [12]?
Answer: Its value is “No adverse effects or significant loss of body weight”.

Question: What about the “viral RNA, compound present during the whole life cycle” value (SARS-CoV-2 [13]; 24 h) of the same molecule?
Answer: The value was “clearly reduced viral RNA levels”.

Question: What about the “viral RNA, compound present post-entry” value (SARS-CoV-2 [13]; added 2 h post-inoculation for 21 h) of the same molecule?
Answer: Its value is “clearly reduced viral RNA levels; also recorded: predominantly inhibits the post-entry process”.

Question: And the “cell viability in Calu-3 cells” value (Calu-3 cells)?
Answer: The value was “do affect cell viability”.

Question: And the CC50 (in vitro [14])?
Answer: Its CC50 is 8.3 µM.
